The target in test [1] is Voltage-dependent T-type calcium channel subunit alpha-1H (Homo sapiens, UniProt O95180). In kind it is functional.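 Also: channel activity triggered by adding a high calcium stimulation buffer.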
The nature of test [2]: cells. Type of test: functional, cell-based.
The nature of test [3]: cells. In kind it is functional, cell-based. The source holds these as a separate data set.
For test [4], the target named is FAD-linked sulfhydryl oxidase ALR (Homo sapiens, UniProt P55789). Kind of test: ALR-catalysed DTT oxidation blockers – biochemical, H2O2 detection, luminescence, cherry-pick, dose response (AID 493248).
Chain of FAD-linked sulfhydryl oxidase ALR (P55789 whole entry): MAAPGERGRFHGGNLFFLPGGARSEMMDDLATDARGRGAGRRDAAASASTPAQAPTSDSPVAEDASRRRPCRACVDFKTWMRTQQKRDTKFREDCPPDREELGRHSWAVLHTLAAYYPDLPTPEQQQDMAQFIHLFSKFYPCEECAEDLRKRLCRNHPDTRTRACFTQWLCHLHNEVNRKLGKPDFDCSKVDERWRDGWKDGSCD
Test [5] concerns the target T1, High affinity choline transporter 1 (Homo sapiens, UniProt Q9GZV3).
T1 sequence (Q9GZV3 whole entry): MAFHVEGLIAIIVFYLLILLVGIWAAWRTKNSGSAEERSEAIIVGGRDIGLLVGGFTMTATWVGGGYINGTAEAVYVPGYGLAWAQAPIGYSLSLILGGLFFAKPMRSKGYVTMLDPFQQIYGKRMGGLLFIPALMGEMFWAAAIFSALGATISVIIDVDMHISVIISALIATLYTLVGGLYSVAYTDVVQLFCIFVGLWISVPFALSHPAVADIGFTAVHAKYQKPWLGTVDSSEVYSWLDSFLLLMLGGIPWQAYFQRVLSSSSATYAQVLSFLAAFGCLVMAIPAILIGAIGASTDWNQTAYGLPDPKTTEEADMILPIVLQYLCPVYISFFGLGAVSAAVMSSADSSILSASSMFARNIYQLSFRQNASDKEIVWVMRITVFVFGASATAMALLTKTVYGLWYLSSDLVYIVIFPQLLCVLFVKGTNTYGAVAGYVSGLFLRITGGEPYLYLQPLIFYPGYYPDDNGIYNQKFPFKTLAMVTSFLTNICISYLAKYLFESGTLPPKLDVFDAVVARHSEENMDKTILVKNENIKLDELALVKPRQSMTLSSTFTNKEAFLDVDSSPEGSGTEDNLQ
Kind of test: human choline transporter blockers, potency – cell-based, 5-point CRC, membrane potential dye, dose response (AID 504840). Type of test: functional.

Test [6] is described as follows: Trypanosoma cruzi growth suppression in host cells – NIH3T3 host cells, beta-gal luminescence, confirmation (AID 2044).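 Also: intracellular parasites grown in NIH/3T3 mouse fibroblasts as host cells; luminescent beta-galactosidase reporter signal from transgenic T. cruzi replicating inside host cells; inhibitors lower the luminescence signal.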 In kind it is functional, cell-based.
Test [7] is described as follows: NIH3T3 cell viability loss – ATP luminescence, mouse fibroblasts, counter-screen, dose response (AID 2010).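 Also: cells exposed to compound for about 90 hours before reading.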 In kind it is functional, cell-based.
The nature of test [8]: NIH-3T3 fibroblast cytotoxicity, dose response, cytotoxicity control, cell-based, fluorescence, Alamar Blue, secondary assay (AID 2327).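 Also: NIH-3T3 mouse fibroblasts cultured with fluconazole at 8 µg/mL.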 Type of test: functional. In general terms: The colour change of resazurin is a common sign of viable cells or microbes.
Test [9] relates to INS1. Kind of test: INS-1E survival protection against cytokine death – cell-based, luminescence, retest, dose response (AID 449756).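 Also: cell death triggered by IL-1 beta plus TNF-alpha plus IFN-gamma mixture; protective hits raise ATP signal compared with cytokine alone wells.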 Type of test: functional. The note with it: Rattus norvegicus.
In test [10] the target is T2, Polyadenylate-binding protein 1 (Homo sapiens, UniProt P11940). Kind of test: MLLE binding blockers, Cy5 peptide tracer – biochemical, fluorescence polarization, Cy5-PAM2 peptide, secondary, miRNA deadenylation inhibitor project, dose response (AID 602260). In kind it is functional. The note with it: read-out: IC50_Mean. In general terms: In fluorescence polarisation assays a small probe gives low polarisation when free and higher when bound to something large.
T2 sequence (P11940 whole entry): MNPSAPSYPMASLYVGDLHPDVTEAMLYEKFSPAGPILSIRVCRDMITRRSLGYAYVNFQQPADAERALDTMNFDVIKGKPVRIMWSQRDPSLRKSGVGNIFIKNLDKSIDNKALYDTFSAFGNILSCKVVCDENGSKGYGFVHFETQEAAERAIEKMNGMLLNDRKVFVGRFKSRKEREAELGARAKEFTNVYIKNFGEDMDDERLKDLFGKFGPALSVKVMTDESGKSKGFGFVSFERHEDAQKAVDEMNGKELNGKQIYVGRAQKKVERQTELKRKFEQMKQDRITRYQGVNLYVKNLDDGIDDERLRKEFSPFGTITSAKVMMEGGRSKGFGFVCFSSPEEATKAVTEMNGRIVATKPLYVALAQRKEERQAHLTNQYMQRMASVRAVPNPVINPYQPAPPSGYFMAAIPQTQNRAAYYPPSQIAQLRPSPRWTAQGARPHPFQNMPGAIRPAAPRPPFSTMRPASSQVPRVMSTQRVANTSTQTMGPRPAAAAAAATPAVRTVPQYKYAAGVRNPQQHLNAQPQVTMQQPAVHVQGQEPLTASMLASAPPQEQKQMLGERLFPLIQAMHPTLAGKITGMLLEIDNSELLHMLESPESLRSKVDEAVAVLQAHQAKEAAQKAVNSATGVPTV

For test [11], the target named is T2, Polyadenylate-binding protein 1. Kind of test: MLLE domain peptide-binding blockers, IC50 – biochemical, fluorescence polarization, FITC-PAM2 peptide, dose response (AID 602259). In kind it is functional. The note with it: read-out: IC50_Mean.
Test [12] can be described thus: cells. Type of test: functional.
The nature of test [13]: THP-1 cell cytotoxicity, dose response, cytotoxicity control for non-replicating M. tuberculosis project (AID 489025). In kind it is functional.
The subject of test [14] is Streptococcus sp. 'group A'. Kind of test: Streptococcus pyogenes SK(-)GAS viability under kanamycin – luminescence, BacTiterGlo, confirmation, counter-screen for streptokinase expression inhibitor project, dose response (AID 1900). In kind it is functional, organism-based.
Test [15] has as its target T3, Streptokinase A (Streptococcus pyogenes serotype M1, UniProt P10520).
T3 sequence (P10520 whole entry): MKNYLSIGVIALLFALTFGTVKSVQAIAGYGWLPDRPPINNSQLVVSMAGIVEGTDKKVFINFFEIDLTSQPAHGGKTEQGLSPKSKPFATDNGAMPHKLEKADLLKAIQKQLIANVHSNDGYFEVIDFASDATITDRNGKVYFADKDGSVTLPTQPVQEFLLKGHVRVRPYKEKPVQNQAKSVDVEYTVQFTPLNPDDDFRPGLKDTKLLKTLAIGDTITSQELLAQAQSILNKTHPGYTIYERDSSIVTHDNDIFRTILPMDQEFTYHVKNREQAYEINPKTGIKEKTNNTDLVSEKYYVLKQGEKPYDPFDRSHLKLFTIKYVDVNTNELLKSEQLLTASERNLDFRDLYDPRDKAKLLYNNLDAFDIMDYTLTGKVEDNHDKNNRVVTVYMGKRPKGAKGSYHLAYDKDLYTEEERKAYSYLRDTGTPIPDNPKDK
Kind of test: viability-normalized secreted streptokinase activity reduction – plasminogen activation absorbance, OD405, dose response (AID 1914).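 Also: secreted streptokinase activity via plasminogen activation per viability signal from cell pellet.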 Type of test: functional, Streptococcus pyogenes M1 GAS.

The test system of test [16] is Streptococcus. Kind of test: GAS UMAA2166 growth inhibition – luminescence, BacTiterGlo, counter-screen for streptokinase expression inhibitor project, dose response (AID 1915).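 Also: potency for reduction of bacterial viability or growth.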 In kind it is functional, organism-based.
Test [17] has as its target Estrogen receptor beta (Homo sapiens, UniProt Q92731).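 Also: recombinant ER-beta bound to coactivator SRC1 peptide in presence of estradiol agonist; inhibitors block coactivator peptide binding and lower the FRET signal.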
The target of test [18] is T4, Protein skinhead-1 (Caenorhabditis elegans, UniProt P34707).
T4 sequence (P34707 whole entry): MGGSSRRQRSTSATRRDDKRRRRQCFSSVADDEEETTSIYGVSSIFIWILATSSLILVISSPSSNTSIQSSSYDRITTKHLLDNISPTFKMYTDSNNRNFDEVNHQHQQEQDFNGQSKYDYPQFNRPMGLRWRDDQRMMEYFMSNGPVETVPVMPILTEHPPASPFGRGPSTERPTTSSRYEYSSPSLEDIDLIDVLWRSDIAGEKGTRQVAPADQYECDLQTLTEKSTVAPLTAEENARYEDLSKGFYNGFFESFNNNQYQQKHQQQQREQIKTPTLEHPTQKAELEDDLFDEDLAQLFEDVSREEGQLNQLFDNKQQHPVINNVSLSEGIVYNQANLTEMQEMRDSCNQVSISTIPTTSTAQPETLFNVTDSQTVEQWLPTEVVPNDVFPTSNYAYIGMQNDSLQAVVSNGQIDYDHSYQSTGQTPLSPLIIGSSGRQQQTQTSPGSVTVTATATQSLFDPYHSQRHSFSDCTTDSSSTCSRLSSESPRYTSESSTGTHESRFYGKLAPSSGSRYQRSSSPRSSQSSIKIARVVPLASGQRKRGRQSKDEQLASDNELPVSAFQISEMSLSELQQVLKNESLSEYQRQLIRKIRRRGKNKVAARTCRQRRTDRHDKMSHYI
Type of test: functional.

Test [19] addresses Glyceraldehyde-3-phosphate dehydrogenase (Homo sapiens, UniProt P04406).
The target of test [20] is Paired box protein Pax-8 (Homo sapiens, UniProt Q06710). Kind of test: PAX8 transcriptional activity inhibition in RMG-I – RMG-I cells, luciferase, cherry-pick, dose response (AID 687027).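 Also: luciferase reporter driven by Pax8 target thyroperoxidase promoter measured by SteadyGlo luminescence.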 In kind it is functional, cell-based.
Chain of Paired box protein Pax-8 (Q06710 whole entry): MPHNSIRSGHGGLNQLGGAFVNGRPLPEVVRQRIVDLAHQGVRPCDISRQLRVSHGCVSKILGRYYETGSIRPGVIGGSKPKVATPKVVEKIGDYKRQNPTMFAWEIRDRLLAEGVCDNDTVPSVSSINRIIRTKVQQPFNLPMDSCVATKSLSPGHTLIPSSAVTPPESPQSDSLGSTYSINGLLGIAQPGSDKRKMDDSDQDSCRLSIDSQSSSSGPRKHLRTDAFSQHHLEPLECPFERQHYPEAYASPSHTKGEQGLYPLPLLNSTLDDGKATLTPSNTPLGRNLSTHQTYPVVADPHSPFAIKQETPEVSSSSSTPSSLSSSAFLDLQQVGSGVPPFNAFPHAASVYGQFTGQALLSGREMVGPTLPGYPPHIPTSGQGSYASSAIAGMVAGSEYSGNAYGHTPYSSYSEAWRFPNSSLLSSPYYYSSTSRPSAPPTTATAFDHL

The source made the active and inactive calls.

One may read the EC50 as the concentration that produces a half-maximal response. For orientation: AC50 means the concentration giving half of the maximal activity seen. By CC50 is commonly meant the concentration at which the toxic effect on the cells reaches its halfway point.

Chain of Voltage-dependent T-type calcium channel subunit alpha-1H (O95180 whole entry): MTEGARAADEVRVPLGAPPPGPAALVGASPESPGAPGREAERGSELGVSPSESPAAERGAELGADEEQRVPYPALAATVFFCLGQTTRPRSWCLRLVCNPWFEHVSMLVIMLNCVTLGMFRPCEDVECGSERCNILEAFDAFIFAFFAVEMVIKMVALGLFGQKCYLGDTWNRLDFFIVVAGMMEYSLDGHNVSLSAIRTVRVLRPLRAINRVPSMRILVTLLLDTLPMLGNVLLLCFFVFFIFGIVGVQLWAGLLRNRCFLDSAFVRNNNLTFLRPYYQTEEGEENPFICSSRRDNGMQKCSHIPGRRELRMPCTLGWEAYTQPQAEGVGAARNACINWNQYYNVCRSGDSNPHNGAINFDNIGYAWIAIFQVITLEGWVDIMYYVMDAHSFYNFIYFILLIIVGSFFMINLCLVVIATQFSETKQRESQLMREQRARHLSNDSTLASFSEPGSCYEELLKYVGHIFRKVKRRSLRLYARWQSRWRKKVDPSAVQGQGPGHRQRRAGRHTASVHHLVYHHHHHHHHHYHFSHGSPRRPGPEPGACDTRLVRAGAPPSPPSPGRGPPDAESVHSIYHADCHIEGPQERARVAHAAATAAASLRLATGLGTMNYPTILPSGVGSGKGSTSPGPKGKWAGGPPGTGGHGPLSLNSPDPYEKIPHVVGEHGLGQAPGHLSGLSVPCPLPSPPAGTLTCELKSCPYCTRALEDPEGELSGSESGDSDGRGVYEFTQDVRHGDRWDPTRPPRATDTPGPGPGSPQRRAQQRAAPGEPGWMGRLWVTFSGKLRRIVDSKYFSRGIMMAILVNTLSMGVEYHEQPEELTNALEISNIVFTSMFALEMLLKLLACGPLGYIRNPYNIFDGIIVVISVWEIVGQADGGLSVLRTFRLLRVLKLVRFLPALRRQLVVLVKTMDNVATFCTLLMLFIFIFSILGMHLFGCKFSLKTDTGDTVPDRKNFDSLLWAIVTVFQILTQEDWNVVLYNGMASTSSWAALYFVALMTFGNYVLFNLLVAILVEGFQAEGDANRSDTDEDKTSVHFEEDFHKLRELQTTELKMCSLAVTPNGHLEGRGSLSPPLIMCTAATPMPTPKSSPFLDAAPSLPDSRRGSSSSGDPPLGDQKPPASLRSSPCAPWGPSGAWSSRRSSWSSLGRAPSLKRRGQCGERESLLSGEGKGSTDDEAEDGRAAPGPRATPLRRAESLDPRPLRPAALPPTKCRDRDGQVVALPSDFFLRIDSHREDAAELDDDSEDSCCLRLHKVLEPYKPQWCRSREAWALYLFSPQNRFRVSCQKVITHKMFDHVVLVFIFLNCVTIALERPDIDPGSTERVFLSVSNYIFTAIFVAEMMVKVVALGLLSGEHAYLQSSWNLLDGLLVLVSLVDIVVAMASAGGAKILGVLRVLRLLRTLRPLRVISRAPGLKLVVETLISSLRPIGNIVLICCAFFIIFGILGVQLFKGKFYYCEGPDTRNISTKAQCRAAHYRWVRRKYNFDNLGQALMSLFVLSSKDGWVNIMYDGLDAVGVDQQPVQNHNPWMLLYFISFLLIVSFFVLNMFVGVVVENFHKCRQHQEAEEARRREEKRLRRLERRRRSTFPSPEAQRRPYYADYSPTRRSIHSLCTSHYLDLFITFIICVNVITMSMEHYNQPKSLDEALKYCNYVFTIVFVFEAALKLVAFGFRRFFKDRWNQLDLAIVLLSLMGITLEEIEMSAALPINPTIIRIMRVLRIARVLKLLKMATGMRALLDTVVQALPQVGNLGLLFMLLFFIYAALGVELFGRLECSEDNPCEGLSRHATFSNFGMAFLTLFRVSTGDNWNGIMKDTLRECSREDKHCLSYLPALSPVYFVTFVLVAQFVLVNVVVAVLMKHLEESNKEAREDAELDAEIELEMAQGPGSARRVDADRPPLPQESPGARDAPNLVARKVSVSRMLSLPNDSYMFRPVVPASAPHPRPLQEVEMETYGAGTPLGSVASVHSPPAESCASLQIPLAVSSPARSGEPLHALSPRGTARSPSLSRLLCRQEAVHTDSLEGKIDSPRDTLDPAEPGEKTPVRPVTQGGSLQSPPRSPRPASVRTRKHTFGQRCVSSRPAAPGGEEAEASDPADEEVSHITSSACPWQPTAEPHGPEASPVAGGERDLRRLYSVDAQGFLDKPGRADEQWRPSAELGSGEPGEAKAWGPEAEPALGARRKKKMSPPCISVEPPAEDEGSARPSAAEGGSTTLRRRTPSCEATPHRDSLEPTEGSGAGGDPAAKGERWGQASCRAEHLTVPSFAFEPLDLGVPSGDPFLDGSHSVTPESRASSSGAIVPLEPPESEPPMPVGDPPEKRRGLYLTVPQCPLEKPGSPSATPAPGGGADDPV
Chain of Glyceraldehyde-3-phosphate dehydrogenase (P04406 whole entry): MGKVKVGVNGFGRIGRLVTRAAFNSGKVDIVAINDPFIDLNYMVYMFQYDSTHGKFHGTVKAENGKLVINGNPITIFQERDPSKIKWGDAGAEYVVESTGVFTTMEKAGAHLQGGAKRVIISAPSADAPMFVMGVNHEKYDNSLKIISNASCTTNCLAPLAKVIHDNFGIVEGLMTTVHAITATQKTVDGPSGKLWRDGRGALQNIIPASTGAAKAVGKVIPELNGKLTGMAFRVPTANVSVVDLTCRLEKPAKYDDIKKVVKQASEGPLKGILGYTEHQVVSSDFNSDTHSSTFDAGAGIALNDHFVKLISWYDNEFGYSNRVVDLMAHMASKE
Chain of Estrogen receptor beta (Q92731 whole entry): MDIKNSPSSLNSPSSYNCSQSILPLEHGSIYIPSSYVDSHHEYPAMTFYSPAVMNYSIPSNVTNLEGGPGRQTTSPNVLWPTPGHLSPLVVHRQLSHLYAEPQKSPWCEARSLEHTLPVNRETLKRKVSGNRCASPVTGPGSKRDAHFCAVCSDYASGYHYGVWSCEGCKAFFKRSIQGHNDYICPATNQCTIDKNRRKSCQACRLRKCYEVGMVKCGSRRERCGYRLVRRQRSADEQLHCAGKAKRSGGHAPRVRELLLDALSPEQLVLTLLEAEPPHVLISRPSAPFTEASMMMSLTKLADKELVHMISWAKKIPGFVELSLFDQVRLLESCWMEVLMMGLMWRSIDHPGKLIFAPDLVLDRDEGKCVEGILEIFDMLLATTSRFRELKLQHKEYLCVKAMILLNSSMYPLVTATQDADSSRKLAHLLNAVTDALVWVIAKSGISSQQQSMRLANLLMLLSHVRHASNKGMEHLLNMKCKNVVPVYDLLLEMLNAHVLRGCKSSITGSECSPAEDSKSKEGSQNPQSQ

Turning to `CC(=O)OCc1c(C(F)(F)F)nn(C)c1Oc1cccc(C(F)(F)F)c1`, in test [1], the EC50 was 8.45 µM (active).

`CCOc1ccc(NC(=O)CN(c2cccc(C(F)(F)F)c2)S(C)(=O)=O)cc1`: in test [1], the 50% effective concentration (EC50) is 9.24 µM (active).

On to `O=C(CN1C(=O)COc2ccc(Cl)cc21)Nc1ccc2c(c1)OCCO2`, for which the EC50 in test [2] and in [3] was > 350 µM (not active) each time.

With `Oc1ccc(-c2nnc(S)n2-c2ccc(F)c(Cl)c2)nn1`, the AC50 in test [4] is 7.36 µM (active).

`CCc1ccc(Nc2c([N+](=O)[O-])nn(-c3ccc4c(c3)OCCO4)[n+]2[O-])cc1`: the IC50 in test [5] was 12.6 µM (active). Besides, the EC50 in [6] is 0.447 µM (active); in test [7] it was > 60 µM (not active).

For the compound `Cc1ccc(C(=O)NCc2ccco2)cc1S(=O)(=O)Nc1cccc(Cl)c1`, the EC50 in [8] was > 150 µM (inactive); in test [1], 5.11 µM (active).

`O=C(Nc1ccc2c(c1)OCO2)N1CCN(c2ncc(C(F)(F)F)cc2Cl)CC1`: the EC50 in [1] is 1.99 µM (active).

With `O=c1c2ccccc2nc(COc2ccccc2)n1/N=C/c1ccc(O)cc1O`, the EC50 in test [2] is 31.9 µM (active); in [6], 2.48 µM (active); in [7] it was 8.68 µM (active); in test [3] it was 10.6 µM (active). Moreover, in test [9], the AC50 was 4.63 µM (active).

Take `O=C(CCc1ccccc1F)N1CCN(c2ccccc2)CC1`: the AC50 in test [4] is > 100 µM (inactive).

Regarding `CCOC(=O)N1CCc2[nH]c3ccc(C)cc3c2C1`, the IC50 is > 66 µM (inactive) in [10] and 55.2 µM (inactive) in [11].

Take `CCCn1c2ccccc2c2cnn(CC(=O)NCCCN3CCCCC3)c(=O)c21`: in test [5], the IC50 is 12.6 µM (active).

As for `CC(/C=C/c1ccccc1F)=N\NC(=O)c1ccccc1`, the IC50 in test [12] was 21.8 µM (active). The CC50 in test [13] was > 40 µM (active).

Regarding `CC[n+]1c(/C=C(\C)Nc2ccccc2)sc2ccccc21`, in test [13], the CC50 was 30.1 µM (active).

Regarding `CCC(SC1=NCCS1)C(=O)Nc1ccc(S(N)(=O)=O)cc1` (configuration not stated), the IC50 in test [10] and in [11] was > 66 µM (inactive) in each case.

Consider `CCN(CC)c1ccc(NC(=O)c2ccc(Br)o2)c(C)c1`, for which the half-maximal activity concentration (AC50) in test [4] is 1.61 µM (active).

Turning to `COc1ccccc1NC(=O)C1CCCN(c2ncnc3c2nc2n3CCCCC2)C1` (configuration not stated), the IC50 in test [5] is 15.1 µM (active).

`O=C(Nc1nc2ccccc2[nH]1)c1ccc(F)cc1`: the IC50 in [12] is 4.33 µM (active). For the same compound, the CC50 in test [13] was > 40 µM (active).

With `COc1ccccc1CCC(=O)OCC(=O)c1c(N)n(CC(C)C)c(=O)n(C)c1=O`, the IC50 in [5] was 14.8 µM (active).

With `O=C(NC(=S)NNS(=O)(=O)c1ccc(Cl)cc1)c1cccnc1`, the IC50 in [10] and in [11] was > 66 µM (inactive) throughout.

As to `CC1CCCCC1NC(=O)CCn1ccc2cc(S(=O)(=O)N3CCCC3)ccc21` (configuration not stated), in test [5], the IC50 was 17 µM (active). Also, the EC50 in test [14], in test [15] and in test [16] was > 150 µM (not active) throughout.

On to `CC1CCN(C(=O)C2CCN(CCCc3ccccc3)CC2)CC1`, for which, in test [1], the EC50 is 7.69 µM (active).

Turning to `CC(C)c1onc(C(=O)Nc2sc3c(c2C#N)CCC3)c1[N+](=O)[O-]`, the EC50 in [2] and in test [3] was > 350 µM (not active) in each case.

Turning to `CCCCC(CC)C(=O)NCc1ccccc1OC` (configuration not stated), the IC50 in [17] was > 50 µM (not active).

As for `CN(CC(=O)N1CCN(c2ccccc2)CC1)S(=O)(=O)c1c[nH]cn1`, the AC50 in test [4] is 4.58 µM (active).

In the case of `Cc1cccc2cc(C#N)c(NCCCn3ccnc3)nc12`, the IC50 in test [12] was 43.2 µM (active). The half-maximal cytotoxic concentration (CC50) in [13] was > 40 µM (active).

As to `O=C(NNS(=O)(=O)c1ccc(C(=O)NC2CCCC2)cc1)c1ccncc1`, in [4], the AC50 was 1.67 µM (active).

Regarding `N#CC1=C(N)Oc2cc(N)ccc2C1C1CC=CCC1` (configuration not stated), the AC50 in test [4] is 5.72 µM (active).

Regarding `O=C(c1ccccc1)N1CC(COc2ccccc2)OC(c2ccco2)O1` (configuration not stated), in [1], the EC50 is 12.4 µM (active).

As for `c1ccc(CCc2nn3c(Cc4ccccc4)nnc3s2)cc1`, the IC50 in test [5] is 27.5 µM (active).

With `Clc1ccc(OCCCCSc2ncccn2)cc1`, the IC50 is 21.7 µM (active) in test [18], > 66 µM (inactive) in test [10] and > 66 µM (inactive) in [11].

Consider `Cc1cc(C)cc(NC(=O)CSc2nnc(Cc3cccn3C)n2-c2ccc(F)cc2)c1`, for which, in test [1], the EC50 is 2.01 µM (active).

For the compound `Nc1nc(-c2ccc3ccccc3c2)cs1`, the half-maximal activity concentration (AC50) in test [4] was 0.188 µM (active).

`CCOC(=O)N1CCN(C(=O)c2ccc(Cn3c(=S)[nH]c4cc(OCC)c(OCC)cc4c3=O)cc2)CC1`: the EC50 in test [2] and in test [3] was > 350 µM (not active) in each case.

`O=C1C2CCCCC2C(=O)N1c1nc(Cc2ccccc2)n[nH]1` (configuration not stated): the IC50 in test [19] is reported as > 100 µM (not active).

In the case of `CC(=O)Nc1ccc(SC[C@H](Cc2ccccc2)N2CC[C@@H](C(C)(C)C)CCC2=O)cc1`, the IC50 in [10] and in [11] was > 66 µM (inactive) throughout.

Regarding `Cc1ccc(-c2cc(C(F)(F)F)n3nc(C(=O)Nc4c(C)n(C)n(-c5ccccc5)c4=O)cc3n2)cc1`, the EC50 in test [2] and in test [3] was > 350 µM (not active) in each case.

As for `O=C1NC(c2ccccc2)(C(F)(F)F)SC2=CCCCCN12` (configuration not stated), the IC50 in test [10] and in [11] was > 66 µM (inactive) each time.

Consider `C[C@H](CO)N1C[C@H](C)[C@@H](CN(C)S(=O)(=O)c2ccc(Cl)cc2)OCCCC[C@H](C)Oc2ccc(NS(=O)(=O)c3ccc(Cl)cc3)cc2C1=O`, for which the AC50 in [20] is 4.34 µM (active).

The values above are taken from ChEMBL document CHEMBL1201862, “PubChem BioAssay data set” (2004).
